# Laboratory results as given in patent publication US20240293367A1, “METHODS OF TREATING DISORDERS WITH A […]” (Cybin IRL Limited, priority 2023, published 2024).
# Values joined by “and” are separate entries in the source; they are usually repeats but may differ in a detail not shown here. Equal entries are not always repeated.
# System: participants with MDD
# Test: MADRS total score, response, remission and relapse in MDD participants (Phase I/IIa study)
# Type: in vivo, human
# Settings: for effect size, Cohen's d, versus placebo (MADRS): Day 21
# Source text: Cohorts 1, 4, 5, and 6 of the study was comprised of participants with MDD. Cohorts 2, 3, and the relative BA cohort of the study were comprised of normal healthy volunteers (NHV). […] MDD participants had been on a stable dose of antidepressant medication for at least one month prior to screening with an inadequate response to that antidepressant medication as judged by the Investigator, and continued to receive their prescribed antidepressant throughout the course of the study.
# Cohorts 4 and 5. For Cohorts 4 and 5, 12 participants each (24 participants total) were randomized in a 3:1 ratio to receive 12 mg of psilocin-d10 or matched placebo in a single dosing session on Day 1. Following a 21-day interval, all participants received a dose of 12 mg psilocin-d10 on Day 22 (second dose for participants originally randomized to psilocin-d10, first dose for participants randomized to placebo), and were followed to Day 42.
# Cohort 6. For Cohort 6, 12 participants were randomized in a 3:1 ratio to receive 16 mg of psilocin-d10 or matched placebo in a single dosing session on Day 1. Following a 21-day interval, all participants received a dose of 16 mg psilocin-d10 on Day 22 (second dose for participants originally randomized to psilocin-d10, first dose for participants randomized to placebo), and were followed to Day 42. Given the availability of data and considering that the secondary endpoint was a change in baseline to Day 21 in MADRS, efficacy data presented herein considers the data cut off of Day 21 postdose. One participant had to be withdrawn from the study due to pregnancy.
# The primary efficacy endpoint defined in the statistical analysis plan (SAP) is the change from baseline to Day 21 of the total Montgomery-Åsberg Depression Rating Scale (MADRS) score compared to placebo, therefore efficacy data presented herein considers the data cut off of Day 21 postdose. Mean total score and change from baseline on Montgomery-Åsberg Depression Rating Scale (MADRS) on days 1, 10, 17, 22, 31, 38, and 42 are presented as secondary efficacy endpoints.
# The secondary objective of the study was to evaluate the efficacy of psilocin-d10 in treating symptoms of MDD as measured by the change from baseline to Day 21 of the MADRS total score in the Intent-to-Treat population, with data analyzed according to the treatment group each participant was randomized to receive. Data from participants in Cohorts 4, 5, and 6 randomized to placebo was pooled for analysis purposes (N=9). Data from participants in Cohorts 4, 5, and 6 randomized to 12 mg or 16 mg psilocin-d10 (N=27) was also pooled for analysis.
# Data from the study was also analyzed according to dosage level of psilocin-d10. Data from participants in Cohorts 4, 5, and 6 randomized to placebo was pooled for analysis purposes (N=9). Data from participants in Cohorts 4 and 5 (treated with 12 mg psilocin-d10) was also pooled for analysis (N=18).
# The rates of remission, response, and relapse were also evaluated within the study. […] Additionally, 20.8% (5 out of 24) of participants in the psilocin-do group (12 mg and 16 mg combined) were in remission (remitters) (defined as a MADRS score of ≤10) compared to 0% for placebo at Day 21. The same 5 participants who were in remission were also classified as responders. None of the participants relapsed at Day 21 compared to baseline.
# The MADRS is a 10-item scale with ratings based on a clinical interview which moves from broadly phrased questions about symptoms to more detailed ones allowing a precise rating of severity. A rating scale from 0 to 6 is employed and the rater must decide whether the rating lies on defined scale steps (0, 2, 4, 6) or between them (1, 3, 5). The MADRS can be used for any time interval between ratings, be it weekly or otherwise, and the time interval should be recorded. […]
# [1] = Day 42, Cohort 4, two 12 mg doses
# [2] = Day 42, Cohort 5, two 12 mg doses
# [3] = Day 42, Cohort 6, two 16 mg doses
# [4] = Day 42, Cohorts 4 and 5, two 12 mg doses
# [5] = Day 42, Placebo/active group, one dose Day 22
# [6] = Day 42, Placebo/active group: one psilocin-d10 dose Day 22
# [7] = Day 42, two 12 mg doses (11 out of 14)
# [8] = Day 42, two 12 mg doses, Cohorts 4 and 5
# [9] = Day 42, two 16 mg doses, Cohort 6
# [10] = Day 42, two doses (Day 1, Day 22), 12 and 16 mg pooled
# [11] = Day 42, two doses, 12 and 16 mg pooled
# [12] = Day 42, two doses, pooled 12 mg and 16 mg
smiles,measurement,setting,value
"[2H]C([2H])([2H])N(C([2H])([2H])[2H])C([2H])([2H])C([2H])([2H])c1c[nH]c2cccc(O)c12 [psilocin-d10, 3-(2-(bis(methyl-d3)amino)ethyl-1,1,2,2-d4)-1H-indol-4-ol]",Relapse - Yes,[1],0 (0.0) n (%)
same,Remission (MADRS ≤10) - Yes,[1],5 (71.4) n (%)
same,Remission - No,[1],2 (28.6) n (%)
same,Response (≥50% reduction from baseline MADRS) - Yes,[1],5 (71.4) n (%)
same,Response - No,[1],2 (28.6) n (%)
same,Relapse - No,[2],8 (100.0) n (%)
same,Relapse - Yes,[2],0 (0.0) n (%)
same,Remission (MADRS ≤10) - Yes,[2],6 (85.7) n (%)
same,Remission - No,[2],1 (14.3) n (%)
same,Response (≥50% reduction from baseline MADRS) - Yes,[2],6 (85.7) n (%)
same,Response - No,[2],1 (14.3) n (%)
same,Relapse - No,[3],8 (100.0) n (%)
same,Relapse - Yes,[3],0 (0.0) n (%)
same,Remission (MADRS ≤10) - Yes,[3],4 (50.0) n (%)
same,Remission - No,[3],4 (50.0) n (%)
same,Response (≥50% reduction from baseline MADRS) - Yes,[3],6 (75.0) n (%)
same,Response - No,[3],2 (25.0) n (%)
same,Relapse - No,[4],15 (100.0) n (%)
same,Relapse - Yes,[4],0 (0.0) n (%)
same,Remission (MADRS ≤10) - Yes,[4],11 (78.6) n (%)
same,Remission - No,[4],3 (21.4) n (%)
same,Response (≥50% reduction from baseline MADRS) - Yes,[4],11 (78.6) n (%)
same,Response - No,[4],3 (21.4) n (%)
same,Relapse - No,[5],9 (100.0) n (%)
same,Relapse - Yes,[5],0 (0.0) n (%)
same,Remission - No,[5],5 (55.6) n (%)
same,Response (≥50% reduction from baseline MADRS) - Yes,[5],4 (44.4) n (%)
same,Response - No,[5],5 (55.6) n (%)
same,Remission (MADRS ≤10) - Yes,"Day 42, Placebo/active group, one dose Day 22 (pooled 12 mg and 16 mg)",4 (44.4) n (%)
same,"MADRS total score, Change from Baseline, Median",[6],−14.0
same,"MADRS total score, Observed, Median",[6],16.0
same,"MADRS total score, Change from Baseline, Mean","Day 42, Placebo/active group: one psilocin-d10 dose Day 22 (12 and 16 mg pooled)",−16.4
same,"MADRS total score, Observed, Mean","Day 42, Placebo/active group: placebo Day 1, one psilocin-d10 dose Day 22 (12 and 16 mg pooled)",15.1
same,participants in remission,"Day 42, after second dose, 12 mg and 16 mg combined (15 out of 22)",68.2%
same,participants with response,"Day 42, after second dose, 12 mg and 16 mg combined (17 out of 22)",77.3% and 77%
same,participants with response,"Day 42, placebo/psilocin-d10 group, first dose Day 22 (4 out of 9)",44.4%
same,participants in remission,[7],78.6%
same,participants with response,[7],78.6%
same,"MADRS total score, Change from Baseline, Mean",[8],−22.8
same,"MADRS total score, Change from Baseline, Median",[8],−25.5
same,"MADRS total score, Observed, Mean",[8],9.4
same,"MADRS total score, Observed, Median",[8],3.5
same,participants in remission,"Day 42, two 16 mg doses (4 out of 8)",50.0%
same,participants with response,"Day 42, two 16 mg doses (6 out of 8)",75%
same,"MADRS total score, Change from Baseline, Mean",[9],−17.6
same,"MADRS total score, Change from Baseline, Median",[9],−20.5
same,"MADRS total score, Observed, Mean",[9],13.0
same,"MADRS total score, Observed, Median",[9],11.5
same,"MADRS total score, Change from Baseline, Mean",[10],−20.9
same,"MADRS total score, Observed, Mean",[10],10.7
same,"MADRS total score, Change from Baseline, Median",[11],−24.5
same,"MADRS total score, Observed, Median",[11],7.0
same,Relapse - No,[12],22 (100.0) n (%)
same,Relapse - Yes,[12],0 (0.0) n (%)
same,Remission (MADRS ≤10) - Yes,[12],15 (68.2) n (%)
same,Remission - No,[12],7 (31.8) n (%)
same,Response (≥50% reduction from baseline MADRS) - Yes,[12],17 (77.3) n (%)
same,Response - No,[12],5 (22.7) n (%)
same,"MADRS, Difference in LS Means, 12 mg (two doses) compared to Placebo/active (one dose)","Day 42, 95% CI (−14.2, 7.5), P 0.5299",−3.34
same,"MADRS, Difference in LS Means, 12 mg compared to Cohort 6 (16 mg)","Day 42, 95% CI (−15.3, 22.5), P 0.6999",3.58
same,"MADRS, difference in LS means, 16 mg (two doses) versus Placebo/active (one dose)","Day 42, 95% CI −22.8, 7.2, p=0.2931",−7.79
same,participants meeting criteria for response,"Day 126, two 12 mg doses (Day 1, Day 22), N=15",73%
same,participants meeting criteria for remission,"Day 126, two 12 mg doses, N=15",60%
same,participants meeting criteria for response,"Day 126, two 16 mg doses (Day 1, Day 22), N=8",75%
same,participants meeting criteria for remission,"Day 126, two 16 mg doses, N=8",75%
same,"effect size, Cohen's d, versus placebo (MADRS)","single 12 mg dose, 95% CI: 0.92, 3.37",2.15
same,"effect size, Cohen's d, versus placebo (MADRS)",single 16 mg dose,2.54
